Source: article PMC9027532, “Preclinical Pharmacokinetic Studies of a Novel Diuretic Inhibiting Urea Transporters” (Molecules, 2022)
Read-outs that look alike come from different tables or passages of the source.

How the values were obtained:
[1] = Tissue distribution study in rats; format: in vivo, SD rats; details: male, Sprague-Dawley, rat, single oral dose 100 mg/kg; for Kp: read-out: Kp (tissue plasma distribution coefficient)
Text: Compound 25a was extensively distributed in most tissues of rats, and the drug concentration was high in organs with abundant hemoperfusions, such as the kidney, heart, lung, and spleen, among which the drug concentration was the highest in the kidney, with a tissue plasma distribution coefficient Kp = 1.67. The high kidney distribution is a good characteristic for diuretics targeting UTs, because the UTs in the renal inner medullary collecting duct (UT-A1/3) and renal vasa recta microvessels (UT-B) play vital roles in urea recycling and urine concentration. […] Thus, the potential risk of 25a for the central nervous system and male reproductive system is probably low.
Twenty-four SD rats were randomly divided into six groups and received a single oral dose of 25a at 100 mg/kg. Blood and tissues samples (i.e., brain, heart, lungs, liver, spleen, kidneys, muscle, skin, fat, testes, and leg bones) were collected at 0.25 h, 0.5 h, 2 h, 6 h, 12 h, and 24 h after dosing. The tissue samples were rinsed with cold saline and dried on filter papers, weighed, and homogenized with fivefold volumes of ultrapure water using a homogenizer (T10, IKA, Staufen, Germany) on ice. The right shin bone of the rat was crushed and soaked in methanol for 12 h at 4 °C. Tissue homogenate or bone soak solution was prepared and analyzed using the above method. Samples were stored at −80 °C until analysis.

[2] = Blood plasma ratio, human blood; format: in vitro ADME; details: for Blood Plasma Ratio: human
Protocol: (§1) The BPR of 25a in rats and humans was assessed. […] In addition, a significant species difference between rats and humans was observed (p < 0.05, Student’s t-test, n = 3).
(§2) The blood plasma ratio of 25a was investigated as previously reported. Briefly, fresh whole blood was collected into collection tubes containing K2–EDTA as an anticoagulant from SD rats and healthy volunteers. Blood spiked with 50, 500, and 2500 ng/mL 25a was incubated in the incubator with 5% CO2 at 37 ± 1 °C for 1 h. Some of the incubated samples were processed as blood samples; the remaining incubated samples were centrifuged to generate plasma samples. The concentration of 25a in samples was determined using the validated LC–MS/MS method.

[3] = Blood plasma ratio, rat blood; format: in vitro ADME, SD rats; details: for Blood Plasma Ratio: rat
Protocol: as §1, §2

rats = test system: rats; design: method as in PMID 34601246; details: orally administered; cited from earlier work
in vivo = details: male, Sprague-Dawley, rat, po
[4] = plasma (tissue distribution study)

CC(=O)Nc1ccc(NC(=O)c2ccc(C(C)=O)o2)cc1 [Compound 25a, N-(4-acetamidophenyl)-5-acetylfuran-2-carboxamide]
AUC(0-t) ([1]; bone): 2680 ± 660 ng·h/mL
Cmax ([1]; bone): 413 ± 150 ng/mL
Tmax ([1]; bone): 1.1 ± 0.9 h
half-life ([1]; bone): 3.7 ± 0.5 h
Kp ([1]; bone): 0.4
AUC(0-t) ([1]; brain): 1390 ± 602 ng·h/mL
Cmax ([1]; brain): 820 ± 769 ng/mL
Tmax ([1]; brain): 0.9 ± 0.6 h
half-life ([1]; brain): 6.1 ± 2.8 h
Kp ([1]; brain): 0.27
AUC(0-t) ([1]; fat): 1570 ± 650 ng·h/mL
Cmax ([1]; fat): 333 ± 238 ng/mL
Tmax ([1]; fat): 1.3 ± 0.8 h
half-life ([1]; fat): 6.6 ± 4.2 h
Kp ([1]; fat): 0.31
AUC(0-t) ([1]; heart): 4160 ± 1010 ng·h/mL
Cmax ([1]; heart): 631 ± 64.8 ng/mL
Tmax ([1]; heart): 0.8 ± 0.7 h
half-life ([1]; heart): 3.5 ± 0.6 h
Kp ([1]; heart): 0.8
AUC(0-t) ([1]; kidney): 8670 ± 1510 ng·h/mL
Cmax ([1]; kidney): 1480 ± 473 ng/mL
Tmax ([1]; kidney): 0.4 ± 0.1 h
half-life ([1]; kidney): 4.2 ± 0.8 h
Kp ([1]; kidney): 1.67
AUC(0-t) ([1]; liver): 1650 ± 1000 ng·h/mL
Cmax ([1]; liver): 183 ± 144 ng/mL
Tmax ([1]; liver): 3.6 ± 2.5 h
half-life ([1]; liver): 6.3 ± 3.4 h
Kp ([1]; liver): 0.22
AUC(0-t) ([1]; lung): 3720 ± 880 ng·h/mL
Cmax ([1]; lung): 1130 ± 1010 ng/mL
Tmax ([1]; lung): 0.4 ± 0.1 h
half-life ([1]; lung): 3.6 ± 0.7 h
Kp ([1]; lung): 0.72
AUC(0-t) ([1]; muscle): 4000 ± 790 ng·h/mL
Cmax ([1]; muscle): 728 ± 216 ng/mL
Tmax ([1]; muscle): 0.8 ± 0.7 h
half-life ([1]; muscle): 3.2 ± 0.4 h
Kp ([1]; muscle): 0.79
AUC(0-t) [1, 4]: 5200 ± 1590 ng·h/mL
Cmax [1, 4]: 1120 ± 132 ng/mL
Tmax [1, 4]: 0.3 h
half-life [1, 4]: 5.7 ± 4.8 h
Kp [1, 4]: 1
AUC(0-t) ([1]; skin): 4830 ± 1080 ng·h/mL
Cmax ([1]; skin): 701 ± 124 ng/mL
Tmax ([1]; skin): 2.6 ± 2.1 h
half-life ([1]; skin): 3.6 ± 0.5 h
Kp ([1]; skin): 0.93
AUC(0-t) ([1]; spleen): 4270 ± 2630 ng·h/mL
Cmax ([1]; spleen): 934 ± 793 ng/mL
Tmax ([1]; spleen): 0.9 ± 0.6 h
half-life ([1]; spleen): 4.5 ± 0.8 h
Kp ([1]; spleen): 0.82
AUC(0-t) ([1]; testis): 338 ± 144 ng·h/mL
Cmax ([1]; testis): 50.6 ± 26.4 ng/mL
Tmax ([1]; testis): 6 h
Kp ([1]; testis): 0.06
Blood Plasma Ratio ([2]; 50 ng/mL): 1.39 ± 0.14
Blood Plasma Ratio ([2]; 500 ng/mL): 1.28 ± 0.05
Blood Plasma Ratio ([2]; 2500 ng/mL): 1.22 ± 0.32
mean blood plasma ratio (BPR) ([2]; humans, 50, 500, 2500 ng/mL): 1.22–1.39
Blood Plasma Ratio ([3]; 50 ng/mL): 0.84 ± 0.26
Blood Plasma Ratio ([3]; 500 ng/mL): 0.74 ± 0.06
Blood Plasma Ratio ([3]; 2500 ng/mL): 0.79 ± 0.15
mean blood plasma ratio (BPR) ([3]; rats, 50, 500, 2500 ng/mL): 0.74–0.84
Na+, K+, and Cl− levels in the blood (rats): without disturbing
duration of urea-selective diuresis (rats): 8 h
urine output vs vehicle control (rats): three times higher urine output than vehicle control
MRT (in vivo): ~5.4 h
MRT (in vivo; 50 mg/kg): 5.4 ± 0.8 h
AUC(0-t) (in vivo; 100 mg/kg): 6920 ± 377 ng·h/mL
